Results reported in US4891432A, “Phenoxy imidazole compound” (Yamanouchi Pharmaceutical Co., Ltd., priority 1986, dated 1990).
Where two headings read alike, the source gives them in different places.

Key:
[1] = test system: mouse leukemia L1210 cells; experiment: Effectiveness against mouse leukemia L1210 cells (in vitro test), cytotoxicity by trypan blue dye exclusion; assay type: cell-based; settings: L1210 cells, 3 days, 37° C., read-out: IC50 (mean dose producing 50%-killing of tumor cells)
Description: Effectiveness against mouse leukemia L1210 cells (in vitro test)
A suspension of cells in culture medium was transferred into wells in a microplate in an amount of 1×10^5 L1210-cells/well. Test sample diluted with a culture medium was added to the suspension in each well, and the mixture was incubated on the medium at 37° C. for 3 days in an atmosphere of air containing 5% carbon dioxide.
Thereafter, the incubated cells were recovered from the microplate and the number of live cells was counted by the dye exclusion test using a 0.5% solution of trypan blue and by using a hemocytometer.

Ehrlich solid tumor = experiment: Test 2: Anti-tumor test against Ehrlich solid tumor; assay type: in vivo, ddY/SLC mice; settings: i.p., days 1 through 9, tumor weight day 21; for inhibition in vivo at 100 mg/kg / inhibition in vivo at 50 mg/kg: Mus musculus, Ehrlich, ip, 504 h, read-out: Growth Inhibition Rate
Description: Anti-tumor test against Ehrlich solid tumor
Ehrlich tumor cells, 2×10^6, on Day 7 after intraperitoneal transplantation to ddY/SLC mice, were subcutaneously transplanted in the left abdomen of ddY/SLC mice (5week age, male)--10 to a group. The active component was intraperitoneally administered in a definite dose 24 hours after the transplantation. (administration: once per one day; 1 through 9 days)
Growth inhibition rate (%)=(C-T)/C×100
T: mean tumor weight in the active component-administered group
c: mean tumor weight in the control group

For “6-[3-[6-[5-(1-imidazolyl]pyridadyloxy]]-2,2-dimethylhexanoic acid ethyl ester [Example 60]”, the IC50 [1] was 3.7 µM and the “Growth Inhibition Rate” value (Ehrlich solid tumor; 50 mg/kg) was 40.5%.

With “6[p-[5-(1-imidazolyl)pentyloxy]phenoxy]-2,2-dimethylhexaneheptylamide [Example 61]” the IC50 [1] was 5.9 µM and the “Growth Inhibition Rate” value (Ehrlich solid tumor; 100 mg/kg) was 38.9%.

`CC(C)(CCCCOc1ccc(OCCCCCn2ccnc2)cc1)C(N)=O` [Example 1, 6-[p-[5-(1-imidazol-yl)pentyloxy]phenoxy]-2,2-dimethylhexanamide] showed an IC50 ([1]; Mus musculus, 72 h) of 7.2 µM and an inhibition in vivo at 100 mg/kg (Ehrlich solid tumor; 100 mg/kg) of 68.5%.

Work on `CC(C)NC(=O)C(C)(C)CCCCOc1ccc(OCCCCCn2ccnc2)cc1` [Example 2] yielded an IC50 ([1]; Mus musculus, 72 h) of 7.5 µM and an inhibition in vivo at 50 mg/kg (Ehrlich solid tumor; 50 mg/kg) of 52.9%.

`CC(C)(CCCCOc1ccc(OCCCCCn2ccnc2)cc1)C(=O)NCc1ccccc1` [Example 3] gave an IC50 ([1]; Mus musculus, 72 h) of 4 µM and an inhibition in vivo at 50 mg/kg (Ehrlich solid tumor; 50 mg/kg) of 58.5%.

`CC(C)(CCCCOc1ccc(OCCCCCn2cccn2)cc1)C(N)=O` [Example 4] was tested, and the IC50 ([1]; Mus musculus, 72 h) was 4.9 µM and the inhibition in vivo at 100 mg/kg (Ehrlich solid tumor; 100 mg/kg) was 50.1%.

For `CC(C)(CCCCOc1ccc(OCCCCCn2ccnc2)cc1)C(=O)OCc1ccccc1` [Example 5, benzyl 6-[p-[5-(1-imidazolyl)pentyloxy]phenoxy]-2,2-dimethylhexanoate], the IC50 ([1]; Mus musculus, 72 h) was 6.3 µM and the inhibition in vivo at 100 mg/kg (Ehrlich solid tumor; 100 mg/kg) was 39.3%.

`CC(C)(C)OC(=O)C(C)(C)CCCCOc1ccc(OCCCCCn2ccnc2)cc1` [Example 6] showed an IC50 ([1]; Mus musculus, 72 h) of 6.8 µM and an inhibition in vivo at 100 mg/kg (Ehrlich solid tumor; 100 mg/kg) of 43.8%.

`CCCCCCCCCOc1ccc(OCCCCCn2ccnc2)cc1` [Example 7, [p-[5-(1-imidazolyl)pentyloxy]phenoxy]nonane] gave an IC50 ([1]; Mus musculus, 72 h) of 11 µM and an inhibition in vivo at 100 mg/kg (Ehrlich solid tumor; 100 mg/kg) of 45%.

Compound `OCCCCCCOc1ccc(OCCCCCn2ccnc2)cc1` [Example 9] has an IC50 ([1]; Mus musculus, 72 h) of 12 µM and an inhibition in vivo at 100 mg/kg (Ehrlich solid tumor; 100 mg/kg) of 30.7%.

With `CCOC(=O)COc1ccc(OCCCCCn2ccnc2)cc1` [Example 10, ethyl p-[5-(1-imidazol-yl)pentyloxy]phenoxyacetate] the inhibition in vivo at 100 mg/kg (Ehrlich solid tumor; 100 mg/kg) was 23.7%.

`COc1ccc(OCCCCCn2ccnc2)cc1` [Example 11, 1-[5-(1-imidazolyl)pentyloxy]-4-methoxybenzene] showed an IC50 ([1]; Mus musculus, 72 h) of 40 µM and an inhibition in vivo at 100 mg/kg (Ehrlich solid tumor; 100 mg/kg) of 33.4%.

`COC(=O)CCCCC(=O)Oc1ccc(OCCCCCn2ccnc2)cc1` [Example 12] showed an IC50 ([1]; Mus musculus, 72 h) of 8.5 µM.

Work on `CCOC(=O)C(C)(C)CCCCOc1ccc(OCCCCCOCc2cccnc2)cc1` [Example 13, ethyl 6-[p-[5-(3-pyridylmethyloxy)pentyloxy]phenoxy]-2,2-dimethylhexanoate] yielded an IC50 ([1]; Mus musculus, 72 h) of 7.6 µM.

`CCOC(=O)C(C)(C)CCCCOc1ccc(OCCCCCOc2cccnc2)cc1` [Example 14] gave an IC50 ([1]; Mus musculus, 72 h) of 4.2 µM.

`CCOC(=O)C(C)(C)CCCCOc1ccc(OCCCCCn2cccc2)cc1` [Example 15] was tested, and the IC50 ([1]; Mus musculus, 72 h) was 28.9 µM and the inhibition in vivo at 100 mg/kg (Ehrlich solid tumor; 100 mg/kg) was 38.8%.

`CCOC(=O)C(C)(C)CCCCOc1ccc(OCCCCCn2cccn2)cc1` [Example 16] was tested, and the IC50 ([1]; Mus musculus, 72 h) was 8.2 µM and the inhibition in vivo at 100 mg/kg (Ehrlich solid tumor; 100 mg/kg) was 42.2%.

`CCOC(=O)C(C)(C)CCCCOc1ccc(OCCCCCOCc2ccccn2)cc1` [Example 17] was tested, and the IC50 ([1]; Mus musculus, 72 h) was 13.7 µM and the inhibition in vivo at 50 mg/kg (Ehrlich solid tumor; 50 mg/kg) was 36.6%.

`CCOC(=O)C(C)(C)CCCCOc1ccc(OCCCCCOCCc2ccccn2)cc1` [Example 18] gave an IC50 ([1]; Mus musculus, 72 h) of 9.5 µM and an inhibition in vivo at 100 mg/kg (Ehrlich solid tumor; 100 mg/kg) of 34.9%.

Work on `CCOC(=O)C(C)(C)CCCCOc1ccc(OCCCCCSc2ccncc2)cc1` [Example 19, ethyl 6-[p-[5-(4-pyridylmercapto)pentyloxy]phenoxy]-2,2-dimethylhexanoate] yielded an IC50 ([1]; Mus musculus, 72 h) of 5.7 µM and an inhibition in vivo at 100 mg/kg (Ehrlich solid tumor; 100 mg/kg) of 47.6%.

With `CCOC(=O)C(C)(C)CCCCOc1ccc(OCCCCCSc2nccn2C)cc1` [Example 20] the IC50 ([1]; Mus musculus, 72 h) was 8.2 µM and the inhibition in vivo at 100 mg/kg (Ehrlich solid tumor; 100 mg/kg) was 52.8%.

`CCOC(=O)C(C)(C)CCCCOc1ccc(OCCCCCSc2nnnn2C)cc1` [Example 22, ethyl 6-[p-[5-(1-methyl-5-tetrazolylmercapto)pentyloxy]phenoxy]-2,2-dimethylhexanoate] showed an IC50 ([1]; Mus musculus, 72 h) of 6.7 µM and an inhibition in vivo at 100 mg/kg (Ehrlich solid tumor; 100 mg/kg) of 40.2%.

`CCOC(=O)C(C)(C)CCCCOc1ccc(OCCCCCSc2cccc[n+]2[O-])cc1` [Example 23] gave an IC50 ([1]; Mus musculus, 72 h) of 6.1 µM.

`CCOC(=O)C(C)(C)CCCCOc1ccc(OCCCCCSc2ncccn2)cc1` [Example 24, ethyl 6-[p-[5-(2-pyrimidylthio)pentyloxy]phenoxy]-2,2-dimethylhexanoate] was tested, and the IC50 ([1]; Mus musculus, 72 h) was 20.6 µM and the inhibition in vivo at 100 mg/kg (Ehrlich solid tumor; 100 mg/kg) was 31.7%.

In the case of `CCOC(=O)C(C)(C)CCCCOc1ccc(OCCCCCSC2=NCCS2)cc1` [Example 25], the IC50 ([1]; Mus musculus, 72 h) is reported as 23.5 µM.

Compound `CCOC(=O)C(C)(C)CCCCOc1ccc(OCCCCCSc2nc3ccccc3s2)cc1` [Example 26] has an IC50 ([1]; Mus musculus, 72 h) of 42.7 µM and an inhibition in vivo at 100 mg/kg (Ehrlich solid tumor; 100 mg/kg) of 30%.

`CCOC(=O)C(C)(C)CCCCOc1ccc(OCCCCCSc2nc3ccccc3[nH]2)cc1` [Example 27] showed an IC50 ([1]; Mus musculus, 72 h) of 4.2 µM.

`CCOC(=O)C(C)(C)CCCCOc1ccc(OCCCCCSc2nccc(O)n2)cc1` [Example 28] showed an IC50 ([1]; Mus musculus, 72 h) of 18.9 µM.

Work on `Cn1ccnc1SCCCCCOc1ccc(OCCCCC(C)(C)C(N)=O)cc1` [Example 30] yielded an IC50 ([1]; Mus musculus, 72 h) of 2.3 µM and an inhibition in vivo at 100 mg/kg (Ehrlich solid tumor; 100 mg/kg) of 60.9%.

With `CC(C)(CCCCOc1ccc(OCCCCCSc2ccncc2)cc1)C(N)=O` [Example 31] the IC50 ([1]; Mus musculus, 72 h) was 2.6 µM and the inhibition in vivo at 100 mg/kg (Ehrlich solid tumor; 100 mg/kg) was 48.9%.

`CCOC(=O)C(C)(C)CCCCOc1ccc(OCCCCCSc2ncnc3[nH]cnc23)cc1` [Example 32] gave an IC50 ([1]; Mus musculus, 72 h) of 2.2 µM and an inhibition in vivo at 100 mg/kg (Ehrlich solid tumor; 100 mg/kg) of 57.5%.

In the case of `CCOC(=O)C(C)(C)CCCCOc1ccc(OCCCCCSc2nnc(N)s2)cc1` [Example 33], the IC50 ([1]; Mus musculus, 72 h) is reported as 7.7 µM and the inhibition in vivo at 100 mg/kg (Ehrlich solid tumor; 100 mg/kg) is reported as 59.5%.

In the case of `Cn1nnnc1SCCCCCOc1ccc(OCCCCC(C)(C)C(N)=O)cc1` [Example 34], the IC50 ([1]; Mus musculus, 72 h) is reported as 4 µM.

`CCOC(=O)C(C)(C)CCCCOc1ccc(OCCCCCOc2ccccn2)cc1` [Example 35, ethyl 6-[p-[5-(2-pyridyloxy)pentyloxy]phenoxy]-2,2-dimethylhexanoate] was tested, and the IC50 ([1]; Mus musculus, 72 h) was 8.6 µM and the inhibition in vivo at 100 mg/kg (Ehrlich solid tumor; 100 mg/kg) was 35.9%.

With `CCOC(=O)C(C)(C)CCCCOc1ccc(OCCCCCn2cnc3ccccc32)cc1` [Example 36] the IC50 ([1]; Mus musculus, 72 h) was 3.8 µM.

`CCOC(=O)C(C)(C)CCCCOc1cccc(OCCCCCn2ccnc2)c1` [Example 37] gave an IC50 ([1]; Mus musculus, 72 h) of 4.6 µM.

Compound `CCOC(=O)C(C)(C)CCCCOc1ccc(OCCCCCn2cnc3cncnc32)cc1` [Example 39] has an IC50 ([1]; Mus musculus, 72 h) of 4.1 µM.

`CCOC(=O)C(C)(C)CCCCOc1ccc(OCCCCCOc2ccccc2-c2ccccc2)cc1` [Example 40] showed an inhibition in vivo at 100 mg/kg (Ehrlich solid tumor; 100 mg/kg) of 46.9%.

In the case of `CCOC(=O)C(C)(C)CCCCOc1ccc(OCCCCCOc2ccncc2)cc1` [Example 41], the IC50 ([1]; Mus musculus, 72 h) is reported as 7.4 µM and the inhibition in vivo at 100 mg/kg (Ehrlich solid tumor; 100 mg/kg) is reported as 38.7%.

In the case of `CCOC(=O)C(C)(C)CCCCSc1nnc(SCCCCCn2ccnc2)s1` [Example 42, ethyl 6-[2-[5-(1-imidazolyl)pentylthio)-1,3,4-thiadiazol-5-ylthio]-2,2-dimethylhexanoate], the IC50 ([1]; Mus musculus, 72 h) is reported as 4.4 µM and the inhibition in vivo at 50 mg/kg (Ehrlich solid tumor; 50 mg/kg) is reported as 53.1%.

With `CCOC(=O)C(C)(C)CCCCOc1ccc(OCCCCCSc2nc3ncccc3[nH]2)cc1` [Example 43, ethyl 6-[p-[5-(1H-imidazo[4,5-b]pyridin-2-ylthio)pentyloxy]phenoxy]-2,2-dimethylhexanoate] the IC50 ([1]; Mus musculus, 72 h) was 8 µM and the inhibition in vivo at 100 mg/kg (Ehrlich solid tumor; 100 mg/kg) was 55.5%.

In the case of `CNC(=O)C(C)(C)CCCCOc1ccc(OCCCCCn2ccnc2)cc1` [Example 49, 6-[p-[5-(1-imidazolyl)pentyloxy]phenoxy]-2,2-dimethylhexanoic acid methylamide], the IC50 ([1]; Mus musculus, 72 h) is reported as 5.5 µM.

`CN(C)C(=O)C(C)(C)CCCCOc1ccc(OCCCCCn2ccnc2)cc1` [Example 50] showed an IC50 ([1]; Mus musculus, 72 h) of 1.8 µM.
